Test results reported in PubChem BioAssay AID1963446 (Molecular Pharmacology Branch, DTP, NCI, 2024).

Tested on: 993429-296-R-J1-PDC complex spheroid growth, percent test/control
Experiment: Anticancer human tumor 993429-296-R-J1-PDC patient-derived uterine sarcoma cell line growth inhibition [Asc]
Details: for IC50: curve of first compound; for viability, T/C: stronger effect = lower value
In short: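 Complex solid-tumor spheroids incorporating human endothelial and mesenchymal stem cells received single agents or combinations over half-log dilution ranges anchored to clinical Cmax.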
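Note: spheroids exposed to compounds for seven days.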

C=CC(=O)N1CCN(c2nc(=O)n(-c3c(C)ccnc3C(C)C)c3nc(-c4c(O)cccc4F)c(F)cc23)C(C)C1 (stereo not given) + CNC(C)C(=O)NC1CN(S(=O)(=O)c2cccc(S(=O)(=O)N3CCC4CCC(C(=O)NC(c5ccccc5)c5ccccc5)N4C(=O)C(NC(=O)C(C)NC)C3)c2)CCC2CCC(C(=O)NC(c3ccccc3)c3ccccc3)N2C1=O
IC50 (second compound 0.01 µM): > 10 µM
IC50 (second compound 0.0316 µM): > 10 µM
IC50 (second compound 0.1 µM): > 10 µM
IC50 (second compound 0.316 µM): > 10 µM
IC50 (second compound 1 µM): > 10 µM
viability, T/C (second compound 0.01 µM, first compound 0.0316 µM): 58.3%
viability, T/C (second compound 0.01 µM, first compound 0.1 µM): 67.2%
viability, T/C (second compound 0.01 µM, first compound 0.316 µM): 71.1%
viability, T/C (second compound 0.01 µM, first compound 1 µM): 69.7%
viability, T/C (second compound 0.01 µM, first compound 3.16 µM): 75.1%
viability, T/C (second compound 0.01 µM, first compound 10 µM): 68.1%
viability, T/C (second compound 0.0316 µM, first compound 0.0316 µM): 58.9%
viability, T/C (second compound 0.0316 µM, first compound 0.1 µM): 65.8%
viability, T/C (second compound 0.0316 µM, first compound 0.316 µM): 66.2%
viability, T/C (second compound 0.0316 µM, first compound 1 µM): 49.3%
viability, T/C (second compound 0.0316 µM, first compound 3.16 µM): 62.8%
viability, T/C (second compound 0.0316 µM, first compound 10 µM): 61.2%
viability, T/C (second compound 0.1 µM, first compound 0.0316 µM): 56.7%
viability, T/C (second compound 0.1 µM, first compound 0.1 µM): 49.8%
viability, T/C (second compound 0.1 µM, first compound 0.316 µM): 62.8%
viability, T/C (second compound 0.1 µM, first compound 1 µM): 65%
viability, T/C (second compound 0.1 µM, first compound 3.16 µM): 59.9%
viability, T/C (second compound 0.1 µM, first compound 10 µM): 64.5%
viability, T/C (second compound 0.316 µM, first compound 0.0316 µM): 52.3%
viability, T/C (second compound 0.316 µM, first compound 0.1 µM): 48.6%
viability, T/C (second compound 0.316 µM, first compound 0.316 µM): 60.6%
viability, T/C (second compound 0.316 µM, first compound 1 µM): 55.9%
viability, T/C (second compound 0.316 µM, first compound 3.16 µM): 62.1%
viability, T/C (second compound 0.316 µM, first compound 10 µM): 59.5%
viability, T/C (second compound 1 µM, first compound 0.0316 µM): 51.7%
viability, T/C (second compound 1 µM, first compound 0.1 µM): 57.3%
viability, T/C (second compound 1 µM, first compound 0.316 µM): 61.5%
viability, T/C (second compound 1 µM, first compound 1 µM): 60.6%
viability, T/C (second compound 1 µM, first compound 3.16 µM): 59.2%
viability, T/C (second compound 1 µM, first compound 10 µM): 59%
